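Assay format: 96-well plates, 48-hour exposure. GI50 = concentration required for 50% inhibition of growth.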 The source made the active and inactive calls. Cut-off read from the data, not from the text of the source: active = GI50 up to about 1.1 µM and inactive = higher.
Tests used:
Test in all cases: NCI tumour cell line growth inhibition, 48 h
[1] = system: RXF 393
[2] = system: HL-60
[3] = system: SK-OV-3
[4] = system: SW-620
[5] = system: SNB-75
[6] = system: PC-3
[7] = system: SK-MEL-28
[8] = system: NCI-H460
[9] = system: A549
[10] = system: OVCAR-8
[11] = system: MDA-MB-435
[12] = system: U-251
[13] = system: UO-31
[14] = system: MDA-MB-231
[15] = system: T47D
[16] = system: MCF7
[17] = system: Hs-578T
[18] = system: ACHN
[19] = system: DU-145
[20] = system: SK-MEL-5

Measured: GI50

O=C(O)C1(Cc2ccccc2)Cc2cc3c(cc2C1)CCC3
inactive: [1] > 100 µM | [2] 48.9 µM | [3] > 100 µM | [4] > 100 µM | [5] > 100 µM | [6] > 100 µM | [7] > 100 µM | [8] 86.9 µM | [9] 51.4 µM | [10] > 100 µM | [11] > 100 µM | [12] 66.4 µM | [13] 95.3 µM | [14] > 100 µM | [15] 18.3 µM | [16] > 100 µM | [17] 75.2 µM | [18] > 100 µM | [19] > 100 µM | [20] > 100 µM

Cn1c(=O)c2c(nc(NCCCCl)n2CC(=O)O)n(C)c1=O
inactive: [1] > 100 µM | [2] > 100 µM | [3] > 100 µM | [4] > 100 µM | [5] > 100 µM | [6] > 100 µM | [7] > 100 µM | [8] > 100 µM | [9] > 100 µM | [10] > 100 µM | [11] > 100 µM | [12] > 100 µM | [13] > 100 µM | [14] > 100 µM | [15] > 100 µM | [16] > 100 µM | [17] > 100 µM | [18] > 100 µM | [19] > 100 µM | [20] > 100 µM

From ChEMBL document CHEMBL1201862, “PubChem BioAssay data set” (2004)
